Reference: patent US20130085133A1, “ANTI-VIRAL TREATMENT AND ASSAY TO SCREENFOR ANTI-VIRAL AGENT” (Sourthern Research Institute Office of Commercialization …, priority 2010, published 2013)

Assays:
RSV, Long strain = assay: virus titer Reduction (VTR) assay, progeny virus TCID50 in HEp-2 cells; type: cell-based, respiratory syncytial virus (RSV); details: human respiratory syncytial virus, 48 h; for log reduction at 5 µg/mL: 5 ug/ml compound, read-out: TCID-50 Reduction @ 5 ug/ml; for log reduction at 12 µg/mL: 12 ug/ml compound, read-out: TCID-50 Reduction 12 @ ug/ml; for log reduction at 25 µg/mL: 25 ug/ml compound, read-out: TCID-50 Reduction 25 @ ug/ml; for log reduction at 50 µg/mL: 50 ug/ml compound, read-out: TCID-50 Reduction @ 50 ug/ml; for log reduction at 3 µg/mL: 3 ug/ml compound, read-out: TCID-50 Reduction @ 3 ug/ml; for log reduction at 6 µg/mL: 6 ug/ml compound, read-out: TCID-50 Reduction 6 @ ug/ml
Protocol: Four concentrations of each compound were evaluated (Table 3). Briefly, the four concentrations of test compounds, HEp-2 cells (8×10^3 per well) and RSV, Long strain (MOI=0.9) were plated in 96 well microtiter plates. The plates were incubated for 48 hours. Fifteen (15) μl of 10-fold serial dilution of progeny virus containing medium from respective samples (test compound treated or untreated) was transferred to infect fresh HEp-2 cells (2×10^3 cells per well) in a 384 well format. Plates were incubated for an additional 6 days and luminescence was measured using Cell Titer-Glo reagent (Promega Inc.) to determine cell viability. […] A well showing lesser than 50% cell viability was regarded as positive for virus infection. Four replicates for each virus dilution were analyzed and the number of virus positive wells (out of 4) was plotted versus the dilution. TCID50 was calculated to be the dilution that produced two positive wells out of four using ActivityBase software (IDBS, Inc, Guilford, UK).

[1] = test system: respiratory syncytial virus (RSV) strain Long; assay: microbe, parasite or virus in culture; details: human respiratory syncytial virus, HEp-2, 144 h
Protocol: The assay measures RSV virus-induced CPE in HEp-2 cells using cell viability as the end point.
Two vials of RSV (strain Long) containing 1×10^7 pfu/mL was thawed using an Eppendorf thermomixer for 13 min at 15° C., with shaking at 350 rpm. […] The cells were incubated for 18-20 h at 37° C., 5% CO2, 90% relative humidity. The medium was aspirated and the cells washed with 10 mL PBS without Mg^2+ or Ca^2+. Cells were harvested from flasks using 0.25% trypsin-EDTA. The cells were resuspended in a freezing medium of 95% fetal calf serum and 5% DMSO to a final cell density of 2×10^6 cells/mL. One mL aliquots of this virus infected cell suspension were dispensed to cryovials and cells were rate frozen to −80° C. Frozen infected cells were then transferred to −150° C. for long term storage.
Test compounds were evaluated by measuring their antiviral activity, cell toxicity, and selectivity. Test compounds were serially diluted in a plate to plate matrix or “stacked plate” matrix. All 320 compounds in a source plate were diluted together resulting in a 10 point dose response dilution series. It was visualized as a serial dilution series proceeding vertically through a stack of plates with the high dose plate on top and the low dose plate on the bottom.
Cells were harvested and resuspended to 80,000 cells per ml in Complete DMEM/F12.
Cells were thawed in a room temperature water bath with gentle agitation. The tube was inverted 5-10. Cells were diluted to 80,000 cells per ml by adding the contents of the vial to 24 ml of cold (4° C.) media.
Twenty five ul of uninfected HEp-2 cells were plated in the cell control wells. Frozen infected cells were combined with uninfected HEp-2 cells at a 1:100 ratio. Twenty five ul of the cell mixture was added to the virus control and compound wells. All cell plating was conducted using a Matrix WellMate and cells were maintained at room temperature with stirring during the plating process. The assay plates were incubated for six days at 37° C., 5% CO2 and 90% relative humidity.
Following the six day incubation period, the assay plates were equilibrated to room temperature for 30 min and an equal volume (30 μL) of Cell Titer-Glo reagent (Promega Inc.) was added to each well using a WellMate (Matrix, Hudson, N.H.) and plates were incubated for an additional 10 min at room temperature. At the end of the incubation, luminescence was measured using a Perkin Elmer Envision™ multi-label reader (PerkinElmer, Wellesley, Mass.) with an integration time of 0.1 s.
Data was analyzed using ActivityBase software (IDBS, Inc, Guilford, UK). thirty two control wells containing cells only and twenty four wells containing cells and virus were included on each assay plate and used to calculate Z′ value for each plate and to normalize the data on a per plate basis. […] Eight ribavirin positive control wells were included on each plate for quality control purposes, but were not used in Z′ calculations. […] In the toxicity assay, results are described as percent viability and the calculation is the same.
An EC50 (for CPE inhibition) and IC50 (for cell viability) were calculated for each substance using the 4 parameter Levenburg-Marquardt algorithm with parameter A locked at 0 and parameter B locked at 100. Standard deviation, normalized chi2 and hill slope were used to evaluate the curves. Values were not extrapolated beyond the tested range of concentrations.

[2] = cytotoxicity assay (percent viability of HEp-2 cells, Cell Titer-Glo); details: human, HEp-2 cells

## Cc1nn(-c2ccccc2)c(C)c1C(=O)C(=O)Nc1cccc(Cl)c1 [AB00785138]
RSV, Long strain
  log reduction at 5 µg/mL: 1.96
  log reduction at 12 µg/mL: 4.24
  log reduction at 25 µg/mL: 4.56
  log reduction at 50 µg/mL: 3.87
[1]
  EC50: 7.52 µM
[2]
  CC50 at 6 days: > 50 µM

## O=C1c2ccccc2C(=O)N1CCCCN(C(=O)c1cccc([N+](=O)[O-])c1)c1ccc(Cl)cc1 [AB00301782]
RSV, Long strain
  log reduction at 3 µg/mL: 1.55
  log reduction at 6 µg/mL: 1.64
  log reduction at 12 µg/mL: 1.42
  log reduction at 25 µg/mL: 0.87
[1]
  EC50: 2.01 µg/mL
[2]
  CC50 at 6 days: > 25 µg/mL

## Cc1cc(C)cc(C(=O)Nc2cccc(NC(=O)c3ccccc3C)c2)c1 [AB00353228]
RSV, Long strain
  log reduction at 3 µg/mL: 1.55
  log reduction at 6 µg/mL: 2.87
  log reduction at 12 µg/mL: 3.42
  log reduction at 25 µg/mL: 3.43
[1]
  EC50: 9.78 µg/mL
[2]
  CC50 at 6 days: > 25 µg/mL

## CC(=O)Nc1nc(N)nc2ccc(CNc3ccc(C(=O)N[C@H](CCC(=O)O)C(=O)O)cc3)nc12 [SRI-10531]
RSV, Long strain
  log reduction at 5 µg/mL: 0.16
  log reduction at 12 µg/mL: 0.97
  log reduction at 25 µg/mL: -0.02
  log reduction at 50 µg/mL: 0.28
[1]
  EC50: 9.09 µM
[2]
  CC50 at 6 days: > 50 µM

## c1coc(-c2nn3c(Cn4cnc5ccccc54)nnc3s2)c1 [AB00369924]
RSV, Long strain
  log reduction at 3 µg/mL: 1
  log reduction at 6 µg/mL: 2.62
  log reduction at 12 µg/mL: 3.22
  log reduction at 25 µg/mL: 2.61
[1]
  EC50: 1.71 µg/mL
[2]
  CC50 at 6 days: > 25 µg/mL

## Cc1ccccc1C(=O)N1CCCN(C(=O)c2ccccc2C)CC1 [AB00312102]
RSV, Long strain
  log reduction at 3 µg/mL: 1.53
  log reduction at 6 µg/mL: 1.86
  log reduction at 12 µg/mL: 2.68
  log reduction at 25 µg/mL: 2.39
[1]
  EC50: 3.71 µg/mL
[2]
  CC50 at 6 days: > 25 µg/mL

## Cc1ccc(N(CCCCN2C(=O)c3ccccc3C2=O)C(=O)c2cccc([N+](=O)[O-])c2)cc1 [AB00301184]
RSV, Long strain
  log reduction at 3 µg/mL: 1.53
  log reduction at 6 µg/mL: 1.67
  log reduction at 12 µg/mL: 1.9
  log reduction at 25 µg/mL: 1.88
[1]
  EC50: 2.53 µg/mL
[2]
  CC50 at 6 days: > 25 µg/mL

## CC(C)(C)c1ccc(C(=O)N2CCC(C(=O)Nc3ccccc3Cl)CC2)cc1 [AB00317604]
[1]
  EC50: 23.7 µg/mL
[2]
  CC50 at 6 days: > 25 µg/mL

## COc1cc(SC)ccc1C(=O)Nc1ccc(C(=O)NC2CC2)cc1 [AB00797753]
[1]
  EC50: 29.9 µM
[2]
  CC50 at 6 days: > 50 µM

## O=C(c1ccc(O)cc1O)c1ccc(O)cc1O [AB00275918]
[1]
  EC50: 20.5 µg/mL
[2]
  CC50 at 6 days: > 25 µg/mL

## Cc1ccc(NC(=O)CN2CCCC2)c(Br)c1 [AB00358122]
[1]
  EC50: 20.1 µg/mL
[2]
  CC50 at 6 days: > 25 µg/mL

## COc1cc(-c2nnc(SCc3cc(Cl)cc(Cl)c3)o2)cc(OC)c1OC [AB00292171]
[1]
  EC50: 7.64 µg/mL
[2]
  CC50 at 6 days: > 25 µg/mL

## O=C(C1CCN(S(=O)(=O)c2ccccc2)CC1)N1CCc2ccccc2C1 [AB00298862]
[1]
  EC50: 20.4 µg/mL
[2]
  CC50 at 6 days: > 25 µg/mL

## CNc1cc(N2CCCC2)ccc1[N+](=O)[O-] [AB00322577]
[1]
  EC50: 18.7 µg/mL
[2]
  CC50 at 6 days: > 25 µg/mL

## N#C/C(=C\c1ccc(-c2ccc(Cl)c(Cl)c2)o1)C(N)=S [AB00344427]
[1]
  EC50: 17.9 µg/mL
[2]
  CC50 at 6 days: > 25 µg/mL

## CCOc1ccccc1-c1cc(C(=O)O)c2cc(Br)ccc2n1 [AB00309817]
[1]
  EC50: 14.3 µg/mL
[2]
  CC50 at 6 days: > 25 µg/mL

## CC(=O)Nc1cc(C(=O)CSc2nc3ccccc3n2C)ccc1O [AB00766545]
[1]
  EC50: 26.2 µM
[2]
  CC50 at 6 days: > 50 µM

## C/C(N)=C(/C#N)C(=O)CSc1nnc2c(Cl)cc(C(F)(F)F)cn12 [AB00724801]
[1]
  EC50: 16.2 µM
[2]
  CC50 at 6 days: > 50 µM

## CCc1ccc(Nc2nnc(SCC(=O)Nc3cc(OC)c([N+](=O)[O-])cc3C)s2)cc1 [AB00728303]
[1]
  EC50: 28.3 µM
[2]
  CC50 at 6 days: > 50 µM

## O=S1(=O)N=C(Nc2ccc3c4c(cccc24)CC3)c2ccccc21 [AB00304418]
[1]
  EC50: 10.7 µg/mL
[2]
  CC50 at 6 days: > 25 µg/mL

## Cc1ccc(-c2csc3ncn(Cc4cc(=O)oc5cc(Br)ccc45)c(=O)c23)cc1 [AB00785889]
[1]
  EC50: 23.4 µM
[2]
  CC50 at 6 days: > 50 µM

## CC1CCCCN1C(=O)c1ccc(NC(=O)c2ccccc2Cl)cc1 (centres unmarked) [AB00359707]
[1]
  EC50: 11.4 µg/mL
[2]
  CC50 at 6 days: > 25 µg/mL

## NC(=O)c1c(NC(=O)Nc2cccc(Cl)c2)sc2c1CCCC2 [AB00313952]
[1]
  EC50: 2.72 µg/mL
[2]
  CC50 at 6 days: > 25 µg/mL

## C=CCN(CC=C)C(=O)c1ccc(OC)c(I)c1 [AB00362750]
[1]
  EC50: 21 µg/mL
[2]
  CC50 at 6 days: > 25 µg/mL

## Cc1cc(C)n(-c2ccc(C(=O)Nc3cc(Cl)ccc3C)cc2)n1 [AB00712667]
[1]
  EC50: 24 µM
[2]
  CC50 at 6 days: > 50 µM

## Nc1c(N=Nc2ccc(-c3ccc(N=Nc4cc(S(=O)(=O)O)c5ccccc5c4N)cc3)cc2)cc(S(=O)(=O)O)c2ccccc12 [AB00443629]
[1]
  EC50: 35.6 µM
[2]
  CC50 at 6 days: > 50 µM

## COC(=O)c1c(-c2ccc(C)c(C)c2)csc1NC(=O)CCCC(=O)O [AB00309859]
[1]
  EC50: 6.84 µg/mL
[2]
  CC50 at 6 days: > 25 µg/mL

## O=C(Nc1ccccc1)N1CCc2cc([N+](=O)[O-])ccc21 [AB00705281]
RSV, Long strain
  log reduction at 5 µg/mL: 4.75
  log reduction at 12 µg/mL: 4.2
  log reduction at 25 µg/mL: 5.56
  log reduction at 50 µg/mL: 5.9

## CCOc1ccc(Nc2nc3cc(S(=O)(=O)N(CC)CC)ccc3o2)cc1 [AB00536652]
[1]
  EC50: 38.7 µM
[2]
  CC50 at 6 days: > 50 µM

## O=C(c1ccc(Cl)cc1Cl)N1CCCN(C(=O)c2ccc(Cl)cc2Cl)CC1 [AB00309842]
[1]
  EC50: 12.3 µg/mL
[2]
  CC50 at 6 days: > 25 µg/mL

## O=S(=O)(O)c1cc(/N=N/c2cc(S(=O)(=O)O)c3cccnc3c2O)ccc1CCc1ccc(/N=N/c2cc(S(=O)(=O)O)c3cccnc3c2S)cc1S(=O)(=O)O [AB00444131]
[1]
  EC50: 18.8 µM
[2]
  CC50 at 6 days: > 50 µM

## COc1ccc(S(=O)(=O)N2CCC(C(=O)N3CCN(c4ccccc4)CC3)CC2)cc1Cl [AB00362388]
[1]
  EC50: 17 µg/mL
[2]
  CC50 at 6 days: > 25 µg/mL

## NCc1cn2ccccc2n1 [AB00877180]
[1]
  EC50: 15.1 µM
[2]
  CC50 at 6 days: > 50 µM

## c1ccc(-c2cc3c(N4CCN(c5ccccc5)CC4)ncnc3s2)cc1 [AB00306917]
[1]
  EC50: 17.3 µg/mL
[2]
  CC50 at 6 days: > 25 µg/mL

## Cc1ccccc1C(=O)NC(=S)Nc1cccc(F)c1 [AB00319373]
[1]
  EC50: 24.4 µg/mL
[2]
  CC50 at 6 days: > 25 µg/mL

## CCOC(=O)c1ccc(NC(=O)CN(c2ccccc2Br)S(C)(=O)=O)cc1 [AB00282821]
[1]
  EC50: 14.5 µg/mL
[2]
  CC50 at 6 days: > 25 µg/mL

## COc1ccccc1OCC(=O)Nc1ccc(Br)cc1C(=O)O [AB00290004]
[1]
  EC50: 23.2 µg/mL
[2]
  CC50 at 6 days: > 25 µg/mL

## CC1=CC(C)(C)Nc2ccc(OC(=O)C(Cc3ccccc3)N3C(=O)C4CCCCC4C3=O)cc21 (centres unmarked) [AB00299290]
[1]
  EC50: 15.8 µg/mL
[2]
  CC50 at 6 days: > 25 µg/mL

## Cc1cccc(NCc2cc(Cl)ccc2O)n1 [AB00317095]
[1]
  EC50: 24.3 µg/mL
[2]
  CC50 at 6 days: > 25 µg/mL

## Cc1ccc2c(Cn3cnc4scc(-c5ccc(Br)cc5)c4c3=O)cc(=O)oc2c1 [AB00796961]
[1]
  EC50: 31.9 µM
[2]
  CC50 at 6 days: > 50 µM

## C/C(N)=C(/C#N)C(=O)COC(=O)c1ccccc1SCC(=O)NC1CCCCCCC1 [AB00723775]
[1]
  EC50: 23.4 µM
[2]
  CC50 at 6 days: > 50 µM

## CCOC(=O)C1=C(C)NC(C)=C(C(=O)OCC)C1C(=O)OCC(=O)Nc1c(Cl)cccc1Cl [AB00712684]
[1]
  EC50: 21.9 µM
[2]
  CC50 at 6 days: > 50 µM

## CCCCSc1nc(=O)c(C(c2ccccc2)c2ccccc2)c(O)[nH]1 [AB00291408]
[1]
  EC50: 24.2 µg/mL
[2]
  CC50 at 6 days: > 25 µg/mL
